Measured values as given in ChEMBL document CHEMBL1153597, “A new synthesis of caged GABA compounds for studying GABAA receptors” (Bioorg Med Chem Lett, 2009).
Activity calls are given as the source filed them. No cut-off for these calls is given here.

Key:
Assay type in all cases: cell-based
Conditions in all cases: HEK-293T
[1] = target: T1, Gamma-aminobutyric acid receptor subunit alpha-1 (Homo sapiens) (UniProt P14867); assay: Neurotransmitter activity at GABAA alpha1 receptor expressed in HEK293T cells assessed as release of GABA-induced permeability to chloride ions by photolysis technique
T1 sequence (whole entry): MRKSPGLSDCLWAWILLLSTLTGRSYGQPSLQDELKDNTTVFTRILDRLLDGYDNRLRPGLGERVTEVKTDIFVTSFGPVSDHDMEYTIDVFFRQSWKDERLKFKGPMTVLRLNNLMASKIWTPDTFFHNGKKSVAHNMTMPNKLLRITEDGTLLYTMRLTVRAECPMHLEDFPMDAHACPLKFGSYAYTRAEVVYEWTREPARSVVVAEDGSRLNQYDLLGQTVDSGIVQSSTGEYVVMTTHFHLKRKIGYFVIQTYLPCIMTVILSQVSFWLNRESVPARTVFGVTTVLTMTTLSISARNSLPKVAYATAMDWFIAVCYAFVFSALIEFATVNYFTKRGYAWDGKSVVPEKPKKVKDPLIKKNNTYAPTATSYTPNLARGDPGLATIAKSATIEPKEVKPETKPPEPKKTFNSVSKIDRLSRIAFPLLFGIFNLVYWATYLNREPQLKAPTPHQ

[2] = target: T2, Gamma-aminobutyric acid receptor subunit delta (Homo sapiens) (UniProt O14764); assay: Neurotransmitter activity at GABAA delta receptor expressed in HEK293T cells assessed as release of GABA-induced membrane permeability to chloride ions by photolysis technique
T2 sequence (whole entry): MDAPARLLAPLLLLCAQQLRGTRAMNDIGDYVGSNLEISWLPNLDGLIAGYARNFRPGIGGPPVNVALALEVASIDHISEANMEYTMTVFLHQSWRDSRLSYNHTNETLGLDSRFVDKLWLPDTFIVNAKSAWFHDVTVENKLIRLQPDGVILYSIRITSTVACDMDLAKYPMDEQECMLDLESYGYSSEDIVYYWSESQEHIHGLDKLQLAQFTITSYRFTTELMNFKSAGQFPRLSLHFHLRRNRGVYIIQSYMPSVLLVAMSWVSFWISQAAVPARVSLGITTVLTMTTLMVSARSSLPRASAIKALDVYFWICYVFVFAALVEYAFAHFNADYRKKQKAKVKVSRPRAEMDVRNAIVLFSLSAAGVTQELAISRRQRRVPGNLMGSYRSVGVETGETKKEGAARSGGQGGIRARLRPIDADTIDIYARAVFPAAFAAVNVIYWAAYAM

[3] = target: T3, Gamma-aminobutyric acid receptor subunit beta-2 (Homo sapiens) (UniProt P47870); assay: Neurotransmitter activity at GABAA beta2 receptor expressed in HEK293T cells assessed as release of GABA-induced permeability to chloride ions by photolysis technique
T3 sequence (whole entry): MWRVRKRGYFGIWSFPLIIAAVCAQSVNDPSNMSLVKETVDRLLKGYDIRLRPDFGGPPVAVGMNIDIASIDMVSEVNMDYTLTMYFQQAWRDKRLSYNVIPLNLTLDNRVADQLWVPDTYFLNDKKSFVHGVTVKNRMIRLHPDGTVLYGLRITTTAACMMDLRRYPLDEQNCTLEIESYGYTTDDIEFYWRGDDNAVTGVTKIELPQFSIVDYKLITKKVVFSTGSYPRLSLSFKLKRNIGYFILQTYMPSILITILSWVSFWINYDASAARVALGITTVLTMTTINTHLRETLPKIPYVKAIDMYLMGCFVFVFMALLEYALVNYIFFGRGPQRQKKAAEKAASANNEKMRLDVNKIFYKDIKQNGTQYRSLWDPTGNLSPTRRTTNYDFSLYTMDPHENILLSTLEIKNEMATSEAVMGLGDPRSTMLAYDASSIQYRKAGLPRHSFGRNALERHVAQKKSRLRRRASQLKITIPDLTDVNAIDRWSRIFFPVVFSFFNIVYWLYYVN

Activity [1]: Active
Activity [2]: Active
Activity [3]: Active
SMILES: CCOC(=O)CNC(=O)C(OC(=O)CCCN)c1cc(=O)oc2cc(N(CC)CC)ccc12 (stereo not drawn)
